Test results: paper PMC6944208 (Journal of the American Chemical Society, 2019)

Target: T1, MePqqB (Methylobacterium extorquens PqqB, Me PqqB) (Methylorubrum extorquens, UniProt Q49149)
T1 sequence (Q49149 1-299): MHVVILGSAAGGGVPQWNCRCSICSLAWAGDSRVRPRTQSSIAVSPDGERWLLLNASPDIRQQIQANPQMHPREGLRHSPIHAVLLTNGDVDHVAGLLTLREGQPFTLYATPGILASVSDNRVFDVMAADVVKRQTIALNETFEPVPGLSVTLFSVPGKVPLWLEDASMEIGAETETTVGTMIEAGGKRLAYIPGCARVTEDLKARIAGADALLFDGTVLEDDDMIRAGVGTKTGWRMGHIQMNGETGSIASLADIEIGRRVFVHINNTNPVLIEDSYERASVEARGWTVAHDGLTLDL
Experiment: isothermal titration calorimetry
Format: binding

Kd: ~200 nM
SMILES: N[C@@H](CSc1cc(C[C@H](N)C(=O)O)cc(O)c1O)C(=O)O [Cys-DOPA]
